The supplement of paper PMC10307832

Key:
Experiment in all cases: relative viability (nuclei count vs DMSO), 5 days (fraction); higher = more cells survive
Linifanib + Navitoclax = compound: Cc1ccc(F)c(NC(=O)Nc2ccc(-c3cccc4[nH]nc(N)c34)cc2)c1 [Linifanib] + CC1(C)CCC(c2ccc(Cl)cc2)=C(CN2CCN(c3ccc(C(=O)NS(=O)(=O)c4ccc(N[C@H](CCN5CCOCC5)CSc5ccccc5)c(S(=O)(=O)C(F)(F)F)c4)cc3)CC2)C1 [Navitoclax] (partner 0.5 µM)
Outline: (§1)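 Lung cancer cell lines, seeded in 1536-well plates, were treated the following day by pin tool with a single drug or with five library-drug doses (not always all listed) in √10 steps on top of a fixed anchor-drug dose. Cells were fixed and nuclei stained in one step after 5 days, and nuclei were counted. Relative viability is the nuclei count for treated wells divided by that for vehicle wells, reported as medians of duplicate plates.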

Linifanib + Pictilisib = compound: Cc1ccc(F)c(NC(=O)Nc2ccc(-c3cccc4[nH]nc(N)c34)cc2)c1 [Linifanib] + CS(=O)(=O)N1CCN(Cc2cc3nc(-c4cccc5[nH]ncc45)nc(N4CCOCC4)c3s2)CC1 [Pictilisib] (partner 1 µM)
Outline: as §1

Linifanib + Alpelisib = compound: Cc1ccc(F)c(NC(=O)Nc2ccc(-c3cccc4[nH]nc(N)c34)cc2)c1 [Linifanib] + Cc1nc(NC(=O)N2CCC[C@H]2C(N)=O)sc1-c1ccnc(C(C)(C)C(F)(F)F)c1 [Alpelisib] (partner 2 µM)
Outline: as §1

Linifanib + Linsitinib = compound: Cc1ccc(F)c(NC(=O)Nc2ccc(-c3cccc4[nH]nc(N)c34)cc2)c1 [Linifanib] + C[C@]1(O)C[C@@H](c2nc(-c3ccc4ccc(-c5ccccc5)nc4c3)c3c(N)nccn32)C1 [Linsitinib] (partner 1 µM)
Outline: as §1

Linifanib + Vorinostat = compound: Cc1ccc(F)c(NC(=O)Nc2ccc(-c3cccc4[nH]nc(N)c34)cc2)c1 [Linifanib] + O=C(CCCCCCC(=O)Nc1ccccc1)NO [Vorinostat] (partner 1 µM)
Outline: as §1

Linifanib = compound: Cc1ccc(F)c(NC(=O)Nc2ccc(-c3cccc4[nH]nc(N)c34)cc2)c1 [Linifanib]
Outline: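 Following overnight incubation at 37 °C, lung cancer cell lines in 1536-well plates were pinned with five library-drug doses (not always all listed) in √10 steps on vehicle-anchored plates. The cells then spent 5 days without medium change before a combined fix, permeabilisation and Hoechst stain, 4× imaging and MetaXpress nuclear counts. Viability is the treated-to-vehicle ratio of nuclei, taken as the median across plates. Only plates with control CV below 25% and at least one doubling passed.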

Cell Line	relative viability (Linifanib + Navitoclax; first compound 0.03162 µM)	relative viability (Linifanib + Navitoclax; first compound 0.1 µM)	relative viability (Linifanib + Navitoclax; first compound 0.3162 µM)	relative viability (Linifanib + Pictilisib; first compound 0.03162 µM)	relative viability (Linifanib + Pictilisib; first compound 0.1 µM)	relative viability (Linifanib + Pictilisib; first compound 0.3162 µM)	relative viability (Linifanib + Alpelisib; first compound 0.03162 µM)	relative viability (Linifanib + Alpelisib; first compound 0.1 µM)	relative viability (Linifanib + Alpelisib; first compound 0.3162 µM)	relative viability (Linifanib + Linsitinib; first compound 0.03162 µM)	relative viability (Linifanib + Linsitinib; first compound 0.1 µM)	relative viability (Linifanib + Linsitinib; first compound 0.3162 µM)	relative viability (Linifanib + Vorinostat; first compound 0.03162 µM)	relative viability (Linifanib + Vorinostat; first compound 0.1 µM)	relative viability (Linifanib + Vorinostat; first compound 0.3162 µM)	relative viability (Linifanib; 0.03162 µM)	relative viability (Linifanib; 0.1 µM)	relative viability (Linifanib; 0.3162 µM)
NCI-H1734	0.851	0.808	0.789	0.501	0.526	0.373	0.748	0.773	0.679	0.869	0.925	0.849	0.815	0.849	0.83	1.04	1.06	0.942
NCI-H1755	0.931	1.06	0.949	0.493	0.503	0.397	0.966	0.963	0.833	0.953	1.01	0.999	0.761	0.765	0.892	1.03	1.06	0.987
NCI-H1793	0.553	0.429	0.444	0.336	0.285	0.332	0.664	0.763	0.681	0.897	0.976	0.817	0.777	0.796	0.745	0.908	1.08	0.941
NCI-H1915	0.78	0.821	0.788	1.04	0.923	0.892	1.08	1.08	1.06	1.12	1.09	1.08	0.549	0.482	0.504	1.03	1.02	0.934
NCI-H1944	1.05	1.05	0.98	0.368	0.378	0.341	0.846	0.848	0.695	1.09	1.17	1.14	0.73	0.599	0.657	0.931	1.08	0.963
NCI-H1975	1.05	1.22	1.08	0.298	0.3	0.367	0.631	0.715	0.65	0.898	0.98	1.02	0.649	0.735	0.697	0.987	1.03	0.938
NCI-H1993	0.806	1.01	0.971	0.838	0.77	0.963	0.628	0.711	0.646	0.749	0.691	0.788	1.08	0.958	0.825	0.89	1.2	0.946
NCI-H2009	1.13	1.14	1.13	0.873	0.973	0.835	1.16	1.19	1.08	1.15	1.19	1.13	0.695	0.781	0.743	1.08	0.972	0.987
NCI-H2023	0.929	1.07	0.981	0.221	0.297	0.263	0.585	0.598	0.564	0.681	0.676	0.652	0.655	0.807	0.612	0.972	1.09	1.02
NCI-H2085	1.04	1.12	1.11	0.426	0.711	0.484	0.923	1.13	0.916	0.895	0.913	0.835	0.854	0.832	0.792	1.02	1.06	1.01
NCI-H2087	0.959	1.08	0.95	0.977	0.989	0.825	1.28	1.17	1.03	1.14	1.02	0.764	0.854	0.695	0.598	1.05	1.19	0.964
NCI-H2126	0.836	0.838	0.816	0.48	0.507	0.457	0.791	0.793	0.765	0.696	0.731	0.753	0.797	0.859	0.873	1.02	1.01	0.972
NCI-H2228	0.994	1.01	0.8	0.415	0.64	0.386	0.821	0.827	0.843	0.648	0.705	0.5	0.794	0.808	0.603	0.993	1.3	1.03
NCI-H2347	0.826	1.01	0.733	0.863	0.987	0.817	1.07	1.05	1.08	0.994	0.96	0.954	0.73	0.773	0.665	1.08	1.22	1
NCI-H2405	0.889	0.88	0.754	0.499	0.606	0.477	0.801	0.847	0.701	0.886	0.98	0.852	0.988	1.05	0.951	1.08	1.04	0.966
NCI-H3122	1.02	1.04	1.01	0.598	0.648	0.577	0.761	0.783	0.786	0.997	0.986	1.04	1.12	1.09	0.927	1.02	1.02	0.975
PC-3 [JPC-3]	0.878	0.826	0.77	0.743	0.786	0.687	1.05	1.02	1.04	0.971	0.903	1	0.671	0.747	0.775	1.06	1.03	0.939
